Where two headings read alike, the source gives them in different places. Marks after values point to notes of the source that are not given here.
What was measured:
[1] = Phase 1 relative bioavailability study part 2: plasma pharmacokinetics of fedratinib (3-period crossover); format: in vivo, human; settings: for Cmax / Tmax / AUC(0-t) / AUC(0-inf) / half-life: human, plasma; for half-life: read-out: t½, mean (SD) (converted)
Procedure: Study part 2 was a 3-period, 6-sequence, open-label, crossover design (Fig. 1B). Treatment 2A (reference) consisted of fedratinib 400 mg (4 × 100-mg capsules) administered orally alongside a nutritional supplement. Treatment 2B (test) consisted of fedratinib 400 mg dispersed in the nutritional supplement (180 mL, Ensure Plus), administered via nasogastric tube, and flushed with 60 mL of sterile water. Treatment 2C (test) consisted of fedratinib 400 mg as a divided dose (2 × 100-mg capsules BID) administered alongside the nutritional supplement. Participants were randomized to receive treatment in one of the following sequences: 2A–2B–2C, 2A–2C–2B, 2B–2A–2C, 2B–2C–2A, 2C–2A–2B, or 2C–2B–2A. […] In the case of an evening (second) dose in the divided dosing plan of treatment 2C, participants were directed to pre-fast at least 2 h before fedratinib dose, and 4 h after fedratinib dose, with water restricted from approximately 2 h before and 1 h after dosing, excluding water given with the treatment.
Approximately 1 h before each fedratinib administration, ondansetron oral tablet (film coated) 8 mg was given orally to reduce the potential for fedratinib-related nausea and vomiting. There was a washout period of at least 12 days between each dose of fedratinib. The duration from screening through the follow-up phone call was approximately 10 weeks. Participants resided at the clinical site from days -1 to 23 (study part 1), or days -1 to 35 (study part 2). If a participant discontinued from the study for any reason, an early termination visit was performed, with only the safety assessments scheduled for the day of discharge taking place. Additionally, each participant who discontinued also received a follow-up phone call 4 (± 2) days after completion of the early termination visit.
For study part 1, and part 2 treatments 2A and 2B, blood samples were collected pre-dose (0 h) and at 0.5, 1, 1.5, 2, 3, 4, 6, 8, 12, 24, 48, 72, 120, 168, 192, and 240 h post-dose. For treatment 2C, blood samples were collected pre-dose (0 h) and at 0.5, 1, 1.5, 2, 3, 4, 6, 8, 12, 12.5, 13, 13.5, 14, 15, 16, 18, 24, 48, 72, 120, 168, 192, and 240 h post-dose of the first dose. The plasma concentration of fedratinib was measured using a validated liquid chromatography-tandem mass spectrometry assay with a lower limit of quantification of 1.00 ng/mL [12, 20].
Plasma PK parameters were calculated using noncompartmental methods by a validated PK analysis program (Phoenix® WinNonlin®, v8.3.4 [Certara USA, Inc., Princeton, NJ, USA]) using actual times. The PK parameters determined for fedratinib Cmax, Tmax, AUC from time 0 to the time of the last quantifiable concentration (AUC0–t), AUC from time 0 to infinity (AUC0–∞), and t½. Additionally for treatment 2C, Cmax and Tmax were estimated after both the first dose (Cmax and Tmax) and the second dose (Cmax2 and Tmax2). AUC0–t and AUC0–∞ were estimated from time 0 (the first dose) through 240 h after the first dose. AUC parameters were calculated using the linear-log trapezoidal method.
The sample size for this study was based on consideration of the precision in the comparison of PK parameters, represented by the 90% confidence interval (CI) of the geometric mean ratios of Cmax and AUC of fedratinib. […] Only participants with valid PK data were included in the summary statistics and statistical analysis.
To compare the PK parameters and estimated relative bioavailability of fedratinib following different administration methods in each study part (treatment 1B to 1A, and treatment 2B and 2C to 2A), a linear mixed-effect model with treatment, period, and sequence as fixed effects and participant nested within sequence as a random effect was fitted to the natural log-transformed PK parameters (Cmax, AUC0–t, and AUC0–∞) for use in estimation of effects and construction of CIs. […]

[2] = In vitro drug recovery from the nasogastric tube and stability in suspension (data on file); format: physicochemical; settings: in vitro studies
From the text: Reduced exposure was also unlikely to be due to misplacement of the nasogastric tube, as placement was confirmed through X-ray imaging (data on file). The differences in exposure to fedratinib between treatments 2B, 2C, and 2A were likely to be due to interparticipant variability. Furthermore, the 90% CI for the difference in exposure to fedratinib between treatments 2B and 2A fell within the 0.8–1.25 range conventionally defined as having no clinical effect.

[3] = test system: patients with myelofibrosis resistant/intolerant to prior ruxolitinib; parameters: method as in doi:10.1182/blood-2022-156669; settings: fedratinib 400 mg/day, FREEDOM trial, 38 patients; cited from earlier work
[4] = parameters: method as in earlier work; settings: 400 mg dosing in patients with myelofibrosis; range 2–4 h; cited from earlier work
[5] = parameters: method as in PMID 27136912; settings: 100 mg and 500 mg doses, healthy volunteers; cited from earlier work
[6] = Treatment 2B vs 2A (nasogastric tube vs intact capsules), linear mixed-effect model
[7] = Treatment 2C: 400 mg oral divided dose (2 × 100-mg capsules BID) with nutritional supplement, after second dose, n = 30

For `Cc1cnc(Nc2ccc(OCCN3CCCC3)cc2)nc1Nc1cccc(S(=O)(=O)NC(C)(C)C)c1` [fedratinib], the “AUC0–∞ geometric mean ratio (90% CI)” value [1, 6] was 0.863 (0.816–0.912), the “Cmax geometric mean ratio (90% CI)” value [1, 6] was 0.898 (0.837–0.963) and the “AUC0–∞ geometric mean ratio (90% CI)” value ([1]; Treatment 2C vs 2A (divided dose vs intact capsules QD), linear mixed-effect model) was 0.850 (0.804–0.899). The “Cmax2, geometric mean (Geo. %CV)” value [1, 7] was 487.3^b (44.0) ng/mL, the “Tmax2, median (range)” value [1, 7] was 3.9^b (1.0–6.0) h and the Cmax ([1]; oral, 400 mg, Treatment 2C: 400 mg divided dose (2 × 100-mg capsules BID), after first dose, n = 30, read-out: Cmax, geometric mean (statistical analysis)) was 641 ng/mL. It also gave a Tmax ([1]; oral, 400 mg, Treatment 2C: 400 mg divided dose (2 × 100-mg capsules BID), after first dose, n = 30, read-out: Tmax, median (statistical analysis)) of 2.26 h, an AUC(0-t) ([1]; oral, 400 mg, Treatment 2C: 400 mg divided dose (2 × 100-mg capsules BID), n = 30, read-out: AUC0–t, geometric mean (statistical analysis)) of 18900 ng·h/mL and an AUC(0-inf) ([1]; oral, 400 mg, Treatment 2C: 400 mg divided dose (2 × 100-mg capsules BID), n = 30, read-out: AUC0–∞, geometric mean (statistical analysis)) of 21300 ng·h/mL. It also gave an AUC(0-t) ([1]; other: nasogastric tube, 400 mg, Treatment 2B: single 400 mg via nasogastric tube, capsule contents dispersed in nutritional supplement, n = 30, read-out: AUC0–t, geometric mean (Geo. %CV)) of 19200 ng·h/mL, an AUC(0-inf) ([1]; other: nasogastric tube, 400 mg, Treatment 2B: single 400 mg via nasogastric tube, capsule contents dispersed in nutritional supplement, n = 30, read-out: AUC0–∞, geometric mean (Geo. %CV)) of 21600 ng·h/mL and a Cmax ([1]; other: nasogastric tube, 400 mg, Treatment 2B: single 400 mg via nasogastric tube, capsule contents dispersed in nutritional supplement, n = 30, read-out: Cmax, geometric mean (Geo. %CV)) of 1250 ng/mL. The Tmax ([1]; other: nasogastric tube, 400 mg, Treatment 2B: single 400 mg via nasogastric tube, capsule contents dispersed in nutritional supplement, n = 30, read-out: Tmax, median (range)) was 1.9 h, the half-life ([1]; other: nasogastric tube, 400 mg, Treatment 2B: single 400 mg via nasogastric tube, capsule contents dispersed in nutritional supplement, n = 30) was 106 h and the AUC(0-t) ([1]; other: nasogastric tube, 400 mg, Treatment 2B: single 400 mg via nasogastric tube, dispersed in nutritional supplement, n = 30, read-out: AUC0–t, geometric mean (statistical analysis)) was 19200 ng·h/mL. It also gave an AUC(0-inf) ([1]; other: nasogastric tube, 400 mg, Treatment 2B: single 400 mg via nasogastric tube, dispersed in nutritional supplement, n = 30, read-out: AUC0–∞, geometric mean (statistical analysis)) of 21600 ng·h/mL, a Cmax ([1]; other: nasogastric tube, 400 mg, Treatment 2B: single 400 mg via nasogastric tube, dispersed in nutritional supplement, n = 30, read-out: Cmax, geometric mean (statistical analysis)) of 1250 ng/mL and a Tmax ([1]; other: nasogastric tube, 400 mg, Treatment 2B: single 400 mg via nasogastric tube, dispersed in nutritional supplement, n = 30, read-out: Tmax, median (statistical analysis)) of 1.87 h. The AUC(0-t) ([1]; po, 400 mg, Treatment 2A: single 400 mg oral, 4 × 100-mg intact capsules with nutritional supplement, n = 30, read-out: AUC0–t, geometric mean (Geo. %CV)) was 22600 ng·h/mL, the AUC(0-inf) ([1]; po, 400 mg, Treatment 2A: single 400 mg oral, 4 × 100-mg intact capsules with nutritional supplement, n = 30, read-out: AUC0–∞, geometric mean (Geo. %CV)) was 25000 ng·h/mL and the Cmax ([1]; po, 400 mg, Treatment 2A: single 400 mg oral, 4 × 100-mg intact capsules with nutritional supplement, n = 30, read-out: Cmax, geometric mean (Geo. %CV)) was 1390 ng/mL. The Tmax ([1]; po, 400 mg, Treatment 2A: single 400 mg oral, 4 × 100-mg intact capsules with nutritional supplement, n = 30, read-out: Tmax, median (range)) was 2.9 h, the half-life ([1]; po, 400 mg, Treatment 2A: single 400 mg oral, 4 × 100-mg intact capsules with nutritional supplement, n = 30) was 96.8 h and the AUC(0-t) ([1]; po, 400 mg, Treatment 2A: single 400 mg oral, intact capsules with nutritional supplement, n = 30, read-out: AUC0–t, geometric mean (statistical analysis)) was 22600 ng·h/mL. The AUC(0-inf) ([1]; po, 400 mg, Treatment 2A: single 400 mg oral, intact capsules with nutritional supplement, n = 30, read-out: AUC0–∞, geometric mean (statistical analysis)) was 25000 ng·h/mL, the Cmax ([1]; po, 400 mg, Treatment 2A: single 400 mg oral, intact capsules with nutritional supplement, n = 30, read-out: Cmax, geometric mean (statistical analysis)) was 1390 ng/mL and the Tmax ([1]; po, 400 mg, Treatment 2A: single 400 mg oral, intact capsules with nutritional supplement, n = 30, read-out: Tmax, median (statistical analysis)) was 2.67 h. The Cmax ([1]; po, 400 mg, Treatment 2C: 400 mg oral divided dose (2 × 100-mg capsules BID) with nutritional supplement, after the first dose, n = 30, read-out: Cmax, geometric mean (Geo. %CV)) was 641 ng/mL, the Tmax ([1]; po, 400 mg, Treatment 2C: 400 mg oral divided dose (2 × 100-mg capsules BID) with nutritional supplement, after the first dose, n = 30, read-out: Tmax, median (range)) was 1.9 h and the half-life ([1]; po, 400 mg, Treatment 2C: 400 mg oral divided dose (2 × 100-mg capsules BID) with nutritional supplement, after the second dose, n = 30) was 96.7 h. The AUC(0-t) ([1]; Treatment 2C: 400 mg oral divided dose (2 × 100-mg capsules BID) with nutritional supplement, from time 0 (first dose) through 240 h, n = 30, read-out: AUC0–t, geometric mean (Geo. %CV)) was 18900 ng·h/mL, the AUC(0-inf) ([1]; Treatment 2C: 400 mg oral divided dose (2 × 100-mg capsules BID) with nutritional supplement, from time 0 (first dose), n = 30, read-out: AUC0–∞, geometric mean (Geo. %CV)) was 21300 ng·h/mL and the “Drug recovery from the nasogastric tube” value [2] was “near-complete drug recovery”. For the same compound, the Stability in suspension [2] was “stable up to 1 h in suspension”, the “Patients achieving ≥ 35% spleen volume reduction at the end of cycle 6” value [3] was 25.7% and the “Patients achieving ≥ 50% reduction in total symptom score at end of cycle 6” value [3] was 44.4%. For the same compound, the “Patients with best overall response of ≥ 35% spleen volume reduction at any time” value [3] was 62.9%, the “Time to peak concentration, median” value [4] was 3 h and the “Increases in exposure (Cmax, AUC) when administered directly after food vs 10-h fasted” value [5] was less than 25%. For the same compound, the “Terminal elimination half-life (t½), fed vs fasted conditions” value [5] was “remained unaffected”.
